Reference: US8067470B2, “Linoleic acid preparations for the topical treatment of male and female pattern androgenetic alopecia, age-related alopecia, and keratosis pilaris” (priority 2008, dated 2011)

How the values were obtained:
P. acnes [1] = conditions: parallel to reduction of sebaceous gland oil production; cited from earlier work
balding scalp = assay: observation of balding scalp in a person treated with 13-cis-retinoic acid for cystic acne; format: in vivo, human; conditions: person treated for five months for cystic acne
From the text: Linoleic acid has been proven in vitro to prevent growth of P. acnes in culture at concentrations similar to the normal level found in follicles not influenced by DHT stimulation of oil production. […] 8 Leyden, James J. M D et al., “Qualitative and Quantitative Changes in Cutaneous Bacteria Associated with Systemic Isotretinoin Therapy for Acne Conglobata”, Journal of Investigative Dermatology, Vol. 86, 390-393, 1986.

male pattern AGA = conditions: cited from earlier work
keratosis pilaris = assay: topical linoleic acid oil in patients with keratosis pilaris; format: in vivo, human; conditions: in the form of an oil, more than 20 patients
From the text: In pre-pubertal children prior to hormonal stimulation of facial oil production, it can be seen transiently on the cheeks, typically the least oily part of the face. […] The histology is reminiscent of the intra-follicular hyperkeratosis and low-level microinflammation seen in AGA follicles, except that AGA scalp follicles are larger and have large sebaceous glands opening into them. It is likely that localized linoleic acid deficiency with resultant aberrations in keratinization and in inflammation, due to permissive changes in microflora such as P. acnes and yeasts, is its etiology. Topical linoleic acid preparations would therefore be a logical approach to the treatment of the condition.

P. acnes [2] = conditions: prior art of this inventor; cited from earlier work

**Q.** Which “P. acnes counts in acne-prone skin” value (P. acnes [1]) does the source give for CC1=C(/C=C/C(C)=C/C=C/C(C)=C\C(=O)O)C(C)(C)CCC1 [13-cis-retinoic acid] here?
**A.** Its value is “parallel and equal reduction in P. acnes counts”.

**Q.** And the “terminal (full sized) hair growth in balding scalp” value (balding scalp)?
**A.** Its value is “increased terminal (full sized) hair growth”.

**Q.** With CC(C)(C)NC(=O)[C@H]1CC[C@H]2[C@@H]3CC[C@H]4NC(=O)C=C[C@]4(C)[C@H]3CC[C@]12C [finasteride] as the compound, how does the “recipients who lost less scalp hair” value (male pattern AGA; after one month, oral) read?
**A.** The value was 95%.

**Q.** What about the “recipients who began regrowing lost hairs” value (male pattern AGA; after six months, oral) of the same compound?
**A.** The value was 67%.

**Q.** What about the “balding recipients showing poor or no response” value (male pattern AGA; in vivo) of the same compound?
**A.** The value was no less than 35%.

**Q.** With CCCCC/C=C\C/C=C\CCCCCCCC(=O)O [linoleic acid] as the compound, how does the “roughness and redness of clinical keratosis pilaris” value (keratosis pilaris) read?
**A.** The value was “amelioration of both the roughness and redness”.

**Q.** What about the “concentration required to completely inhibit growth of P. acnes in culture” value (P. acnes [2]) of the same compound?
**A.** The value was 2%.
